Assay results taken from ChEMBL document CHEMBL2176989, “Design, synthesis, and pharmacological evaluation of piperidin-4-yl amino aryl sulfonamides: novel, potent, selective, orally active, and brain penetrant 5-HT₆ receptor antagonists” (J Med Chem, 2012).

Tests used:
[1] = tested on: Rattus norvegicus; assay: Procognitive activity in sc dosed Wistar rat assessed as increase in acetylcholine level in medial prefrontal cortex administered as an acute dose measured up to 4 hrs by brain microdialysis method; format: functional, organism-based
[2] = AUC (0 to 24 hrs) in fasted beagle dog at 3 mg/kg, po; format: ADME, organism-based, Canis lupus familiaris; parameters: time < 24 hr, dose 3 mg/kg, route oral; conditions: plasma
[3] = Tmax in fasted beagle dog at 3 mg/kg, po; format: ADME, organism-based, Canis lupus familiaris; parameters: dose 3 mg/kg, route oral; conditions: in vivo
[4] = Oral bioavailability in fasted Wistar rat at 5 mg/kg; format: ADME, organism-based; conditions: in vivo
[5] = Cmax in fasted Wistar rat at 5 mg/kg, po; format: ADME, organism-based; parameters: dose 5 mg/kg, route oral; conditions: in vivo
[6] = Clearance in beagle dog at 1 mg/kg, iv; format: ADME, organism-based, Canis lupus familiaris; parameters: dose 1 mg/kg, route intravenous; conditions: in vivo
[7] = Half life in beagle dog at 1 mg/kg, iv; format: ADME, organism-based, Canis lupus familiaris; parameters: dose 1 mg/kg, route intravenous; conditions: in vivo
[8] = molecular target: 5-hydroxytryptamine receptor 4 (Homo sapiens, UniProt Q13639); assay: Binding affinity to 5HT4 receptor
5-hydroxytryptamine receptor 4, sequence (Q13639 whole entry): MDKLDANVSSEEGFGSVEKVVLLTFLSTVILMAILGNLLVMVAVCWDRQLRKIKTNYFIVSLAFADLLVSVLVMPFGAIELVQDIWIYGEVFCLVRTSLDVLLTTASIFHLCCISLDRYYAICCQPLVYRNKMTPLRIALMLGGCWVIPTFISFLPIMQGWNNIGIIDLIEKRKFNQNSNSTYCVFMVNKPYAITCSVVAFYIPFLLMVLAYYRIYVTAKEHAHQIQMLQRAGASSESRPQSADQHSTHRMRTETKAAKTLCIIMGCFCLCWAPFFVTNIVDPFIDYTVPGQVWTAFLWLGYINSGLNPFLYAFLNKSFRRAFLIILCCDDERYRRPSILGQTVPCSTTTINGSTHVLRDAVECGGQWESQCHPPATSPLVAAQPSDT

[9] = molecular target: Sodium-dependent dopamine transporter (Homo sapiens, UniProt Q01959); assay: Binding affinity to dopamine transporter
Sodium-dependent dopamine transporter, sequence (Q01959 whole entry): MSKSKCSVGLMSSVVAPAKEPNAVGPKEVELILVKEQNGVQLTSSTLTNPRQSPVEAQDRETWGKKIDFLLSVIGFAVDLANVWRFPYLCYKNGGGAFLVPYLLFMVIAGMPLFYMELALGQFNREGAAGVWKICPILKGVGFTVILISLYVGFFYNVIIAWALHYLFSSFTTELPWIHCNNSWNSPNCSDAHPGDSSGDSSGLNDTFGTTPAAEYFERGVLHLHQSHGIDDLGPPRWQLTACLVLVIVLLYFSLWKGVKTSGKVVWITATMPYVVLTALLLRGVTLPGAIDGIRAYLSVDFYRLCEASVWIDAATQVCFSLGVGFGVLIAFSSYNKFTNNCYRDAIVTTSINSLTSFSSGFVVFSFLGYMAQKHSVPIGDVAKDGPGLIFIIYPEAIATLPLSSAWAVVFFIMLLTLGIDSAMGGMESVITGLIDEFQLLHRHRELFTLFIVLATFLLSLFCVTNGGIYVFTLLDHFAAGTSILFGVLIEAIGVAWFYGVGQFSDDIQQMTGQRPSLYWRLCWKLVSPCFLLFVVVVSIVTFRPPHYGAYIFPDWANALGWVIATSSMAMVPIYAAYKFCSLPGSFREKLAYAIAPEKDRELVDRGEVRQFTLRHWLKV

[10] = molecular target: T1, Alpha-1B adrenergic receptor (Homo sapiens, UniProt P35368); assay: Binding affinity to adrenergic alpha1B receptor
T1 sequence (P35368 whole entry): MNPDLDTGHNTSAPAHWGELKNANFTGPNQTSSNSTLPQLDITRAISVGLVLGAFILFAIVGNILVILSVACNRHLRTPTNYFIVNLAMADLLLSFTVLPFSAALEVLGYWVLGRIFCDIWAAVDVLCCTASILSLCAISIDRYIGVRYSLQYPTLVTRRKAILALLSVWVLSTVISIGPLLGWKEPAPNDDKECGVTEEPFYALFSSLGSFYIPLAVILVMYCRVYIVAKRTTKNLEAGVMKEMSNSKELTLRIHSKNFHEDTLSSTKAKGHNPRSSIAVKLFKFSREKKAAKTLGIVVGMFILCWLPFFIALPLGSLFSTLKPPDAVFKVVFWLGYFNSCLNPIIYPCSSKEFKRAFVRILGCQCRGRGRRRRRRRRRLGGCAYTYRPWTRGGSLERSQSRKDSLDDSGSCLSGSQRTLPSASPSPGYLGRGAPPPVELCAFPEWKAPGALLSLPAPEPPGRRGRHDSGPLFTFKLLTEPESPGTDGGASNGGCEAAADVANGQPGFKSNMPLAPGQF

[11] = molecular target: Histamine H1 receptor (Homo sapiens, UniProt P35367); assay: Binding affinity to histamine H1 receptor
Histamine H1 receptor, sequence (P35367 whole entry): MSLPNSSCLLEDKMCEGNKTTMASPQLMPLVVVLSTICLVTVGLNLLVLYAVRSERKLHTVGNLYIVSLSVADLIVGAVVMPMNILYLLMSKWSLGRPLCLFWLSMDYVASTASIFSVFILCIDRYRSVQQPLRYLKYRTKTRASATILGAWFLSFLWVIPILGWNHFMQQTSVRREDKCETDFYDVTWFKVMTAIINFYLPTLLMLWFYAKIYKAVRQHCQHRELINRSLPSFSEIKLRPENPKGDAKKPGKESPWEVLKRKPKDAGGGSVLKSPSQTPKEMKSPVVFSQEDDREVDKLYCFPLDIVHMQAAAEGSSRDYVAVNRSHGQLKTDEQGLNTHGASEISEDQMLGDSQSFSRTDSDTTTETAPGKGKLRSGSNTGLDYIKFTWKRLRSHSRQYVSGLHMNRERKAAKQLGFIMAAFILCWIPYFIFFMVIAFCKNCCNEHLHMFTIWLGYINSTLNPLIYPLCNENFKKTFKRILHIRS

[12] = molecular target: 5-hydroxytryptamine receptor 6 (Homo sapiens) (UniProt P50406); assay: Antagonist activity at human recombinant 5HT6 receptor expressed in CHO cells assessed as inhibition of 5HT-induced luciferase activity after 4 hrs by reporter gene assay; format: functional, cell-based
5-hydroxytryptamine receptor 6 (Homo sapiens), sequence (P50406 whole entry): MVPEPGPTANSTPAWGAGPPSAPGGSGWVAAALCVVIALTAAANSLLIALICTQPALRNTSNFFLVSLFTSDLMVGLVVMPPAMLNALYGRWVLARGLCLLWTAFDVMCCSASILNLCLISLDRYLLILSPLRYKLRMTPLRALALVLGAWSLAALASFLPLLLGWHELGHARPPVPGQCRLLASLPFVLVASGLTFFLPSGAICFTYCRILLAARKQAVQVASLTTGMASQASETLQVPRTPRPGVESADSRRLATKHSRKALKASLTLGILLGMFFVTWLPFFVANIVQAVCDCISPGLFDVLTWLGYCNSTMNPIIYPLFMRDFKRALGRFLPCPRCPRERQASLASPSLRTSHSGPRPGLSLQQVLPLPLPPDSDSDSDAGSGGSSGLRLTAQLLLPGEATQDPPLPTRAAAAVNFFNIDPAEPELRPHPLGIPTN

AUC(0-t) at 24 h [2]: 3630 ng·h/mL
Tmax [3]: 1.7 h
bioavailability [4]: 29%
Cmax [5]: 156 ng/mL
clearance [6]: 12 mL/min/kg
half-life [7]: 2.3 h
EC50 [8]: > 10 µM
Ki [9]: 3.22 µM
Ki [10]: 3.79 µM
Ki [11]: 0.586 µM
Kb [12]: 0.04 nM
SMILES: COc1ccc(S(=O)(=O)n2cc(C)c3cc(Cl)cnc32)cc1NC1CCN(C)CC1
Activity [1]: Dose-dependent effect
